Measurements: ChEMBL document CHEMBL1201862, “PubChem BioAssay data set” (2004)
The source made the active and inactive calls.

Columns and labels:
[1] = target: Protein kinase C zeta type (Homo sapiens, UniProt Q05513); type: functional;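 further: measured as one member of a broad kinase profiling panel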
[2] = target: Protein kinase C gamma type (Homo sapiens, UniProt P05129); type: functional
[3] = target: MAP kinase-activated protein kinase 3 (Homo sapiens, UniProt Q16644); type: functional;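 further: value comes from a kinome-wide profiling panel in which MAPKAPK3 is one of the panel members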
[4] = target: G protein-coupled receptor kinase 5 (Homo sapiens, UniProt P34947); assay: Navigating the Kinome. Panel member name: GPRK5; type: functional
[5] = target: Serine/threonine-protein kinase pim-1 (Homo sapiens, UniProt P11309); type: functional
[6] = target: Calcium/calmodulin-dependent protein kinase type II subunit beta (Homo sapiens, UniProt Q13554); type: functional
[7] = A High Throughput Confirmatory Assay used to Identify Novel Compounds that Inhibit Mycobacterium Tuberculosis in the absence of Glycerol using Purified and Synthesized Compounds (3).; type: functional
[8] = target: T1, Hexokinase HKDC1 (Homo sapiens, UniProt Q2TB90); assay: HKDC1 hexokinase activators, dose response, biochemical, W721R variant (AID 504730); type: functional
T1 sequence (Q2TB90 whole entry): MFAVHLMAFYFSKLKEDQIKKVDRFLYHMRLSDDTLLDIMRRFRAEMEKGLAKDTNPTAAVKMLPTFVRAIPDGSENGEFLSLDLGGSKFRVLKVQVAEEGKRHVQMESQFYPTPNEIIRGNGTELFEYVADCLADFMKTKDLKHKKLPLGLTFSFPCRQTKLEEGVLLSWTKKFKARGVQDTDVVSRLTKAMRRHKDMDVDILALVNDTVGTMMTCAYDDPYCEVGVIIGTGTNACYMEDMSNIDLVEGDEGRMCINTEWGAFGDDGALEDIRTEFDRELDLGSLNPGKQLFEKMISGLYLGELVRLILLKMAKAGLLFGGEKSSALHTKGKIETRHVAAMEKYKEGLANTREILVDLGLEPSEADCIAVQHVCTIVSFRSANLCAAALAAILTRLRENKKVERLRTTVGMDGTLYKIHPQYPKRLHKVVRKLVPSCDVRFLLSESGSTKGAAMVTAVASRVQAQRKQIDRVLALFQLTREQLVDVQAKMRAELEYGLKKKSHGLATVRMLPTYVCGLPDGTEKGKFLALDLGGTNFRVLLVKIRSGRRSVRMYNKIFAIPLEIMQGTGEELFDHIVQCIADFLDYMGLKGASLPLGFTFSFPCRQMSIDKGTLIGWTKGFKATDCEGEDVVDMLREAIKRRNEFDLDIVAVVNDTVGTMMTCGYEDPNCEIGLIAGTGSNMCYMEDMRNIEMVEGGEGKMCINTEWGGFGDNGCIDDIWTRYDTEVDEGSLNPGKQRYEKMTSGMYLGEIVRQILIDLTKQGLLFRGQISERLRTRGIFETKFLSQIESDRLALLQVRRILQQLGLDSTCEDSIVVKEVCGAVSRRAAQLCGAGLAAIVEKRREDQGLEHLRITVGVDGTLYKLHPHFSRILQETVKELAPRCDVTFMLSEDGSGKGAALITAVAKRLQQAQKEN

[9] = target: Nonstructural protein 1 (Influenza A virus, UniProt Q194T2); type: functional, Influenza A virus (A/California/07/2009(H1N1))
[10] = target: Hexokinase-1 (Homo sapiens, UniProt P19367); assay: hexokinase 1 activators, dose response, selectivity assay for HKDC1 activator project, biochemical (AID 504762); type: functional
[11] = target: Latent membrane protein 1 (Human herpesvirus 4 (strain B95-8), UniProt P03230); assay: TES1-eGFP NF-kB reporter inhibition versus Tet-On dsRED, dose response, selectivity assay for LMP1 NF-kB inhibitor project, imaging, HEK293T, dual-color eGFP/dsRED, cherry-picks (AID 588398); type: functional, cell-based
[12] = target: Melanin-concentrating hormone receptor 1 (Homo sapiens, UniProt Q99705); assay: Late-stage fluorescence-based counterscreen for antagonists of the G-protein coupled receptor 7 (GPR7): cell-based dose response assay to identify antagonists of the melanin-concentrating hormone receptor 1 (MCHR1) Set 5.; type: functional
[13] = test system: HEK293; assay: cytotoxicity in HEK293T NF-kB-Luc cells, SAR follow-up, cytotoxicity control for NF-kB activator project, cell-based, resazurin fluorescence (AID 493251); type: functional; settings: Homo sapiens
[14] = test system: Jurkat; assay: SAR Analysis of small molecule inhibitors of both B-cell and T-cell specific antigen receptor-induced NF-kB activation in a Jurkat cell line using a luminescence assay. [Related pubchem assays (depositor defined):AID435003, AID435022, AID465, AID489029]; type: functional, cell-based; settings: Homo sapiens
[15] = test system: HEK293; assay: SAR Analysis of small molecule inhibitors of both B-cell and T-cell specific antigen receptor-induced NF-kB activation in a HEK-293T cell line using a luminescence assay. [Related pubchem assays (depositor defined):AID435003, AID435022, AID465, AID489019, AID489029]; type: functional, cell-based; settings: Homo sapiens
[16] = target: T2, Caspase-3 (Homo sapiens, UniProt P42574); assay: caspase-3 inhibitors as off-family protease, SAR follow-up, selectivity assay for SENP protease inhibitor project, biochemical, luminescence, set 2 (AID 588599); type: functional
T2 sequence (P42574 whole entry): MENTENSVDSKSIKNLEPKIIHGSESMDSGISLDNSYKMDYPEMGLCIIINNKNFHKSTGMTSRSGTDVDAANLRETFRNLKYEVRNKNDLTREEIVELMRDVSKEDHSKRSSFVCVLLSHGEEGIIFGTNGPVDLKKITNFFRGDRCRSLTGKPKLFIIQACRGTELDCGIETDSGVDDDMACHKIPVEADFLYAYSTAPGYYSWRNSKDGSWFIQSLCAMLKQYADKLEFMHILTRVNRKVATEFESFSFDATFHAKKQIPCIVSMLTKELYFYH

[17] = target: T3, Sentrin-specific protease 8 (Homo sapiens, UniProt Q96LD8); assay: SENP8 protease inhibitors, SAR follow-up, biochemical, luminescence, set 2 (AID 588601); type: functional
T3 sequence (Q96LD8 whole entry): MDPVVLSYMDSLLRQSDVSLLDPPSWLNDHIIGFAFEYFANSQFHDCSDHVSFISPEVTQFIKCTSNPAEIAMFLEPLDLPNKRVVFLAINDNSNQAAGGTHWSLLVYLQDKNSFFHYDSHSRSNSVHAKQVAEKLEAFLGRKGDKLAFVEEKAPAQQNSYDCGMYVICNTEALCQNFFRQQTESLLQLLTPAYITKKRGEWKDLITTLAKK

[18] = target: T4, Sentrin-specific protease 7 (Homo sapiens, UniProt Q9BQF6); assay: SENP7 protease inhibitors, SAR follow-up, biochemical, luminescence, set 2 (AID 588600); type: functional
T4 sequence (Q9BQF6 whole entry): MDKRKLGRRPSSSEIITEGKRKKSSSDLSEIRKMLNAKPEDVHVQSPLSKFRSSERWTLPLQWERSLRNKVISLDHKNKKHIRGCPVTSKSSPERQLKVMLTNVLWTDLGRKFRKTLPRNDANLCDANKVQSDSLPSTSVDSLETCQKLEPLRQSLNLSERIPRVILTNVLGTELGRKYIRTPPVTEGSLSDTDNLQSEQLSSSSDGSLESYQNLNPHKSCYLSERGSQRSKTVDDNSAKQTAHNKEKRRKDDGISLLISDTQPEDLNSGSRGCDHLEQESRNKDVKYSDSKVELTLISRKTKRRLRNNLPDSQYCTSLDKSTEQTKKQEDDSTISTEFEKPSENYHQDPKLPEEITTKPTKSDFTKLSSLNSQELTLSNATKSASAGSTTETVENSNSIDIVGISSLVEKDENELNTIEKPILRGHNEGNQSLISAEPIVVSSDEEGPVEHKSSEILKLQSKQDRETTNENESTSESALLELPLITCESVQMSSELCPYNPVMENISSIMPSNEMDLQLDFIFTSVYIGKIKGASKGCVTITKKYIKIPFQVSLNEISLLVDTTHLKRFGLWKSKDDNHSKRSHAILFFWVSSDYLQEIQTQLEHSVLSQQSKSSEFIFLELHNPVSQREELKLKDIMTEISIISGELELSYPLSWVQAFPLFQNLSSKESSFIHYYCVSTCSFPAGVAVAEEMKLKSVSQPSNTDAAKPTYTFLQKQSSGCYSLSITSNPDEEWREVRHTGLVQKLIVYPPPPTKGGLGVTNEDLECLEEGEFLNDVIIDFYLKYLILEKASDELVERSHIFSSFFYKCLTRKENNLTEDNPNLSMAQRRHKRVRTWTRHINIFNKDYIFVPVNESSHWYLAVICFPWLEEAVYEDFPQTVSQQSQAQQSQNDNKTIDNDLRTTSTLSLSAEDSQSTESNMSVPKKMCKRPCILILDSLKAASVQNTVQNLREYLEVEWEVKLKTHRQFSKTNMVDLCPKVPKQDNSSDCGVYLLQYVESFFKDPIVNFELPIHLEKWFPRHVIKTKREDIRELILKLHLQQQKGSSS

[19] = target: T5, Sentrin-specific protease 6 (Homo sapiens, UniProt Q9GZR1); assay: SENP6 protease inhibitors, SAR follow-up, biochemical, luminescence, set 2 (AID 588598); type: functional
T5 sequence (Q9GZR1 whole entry): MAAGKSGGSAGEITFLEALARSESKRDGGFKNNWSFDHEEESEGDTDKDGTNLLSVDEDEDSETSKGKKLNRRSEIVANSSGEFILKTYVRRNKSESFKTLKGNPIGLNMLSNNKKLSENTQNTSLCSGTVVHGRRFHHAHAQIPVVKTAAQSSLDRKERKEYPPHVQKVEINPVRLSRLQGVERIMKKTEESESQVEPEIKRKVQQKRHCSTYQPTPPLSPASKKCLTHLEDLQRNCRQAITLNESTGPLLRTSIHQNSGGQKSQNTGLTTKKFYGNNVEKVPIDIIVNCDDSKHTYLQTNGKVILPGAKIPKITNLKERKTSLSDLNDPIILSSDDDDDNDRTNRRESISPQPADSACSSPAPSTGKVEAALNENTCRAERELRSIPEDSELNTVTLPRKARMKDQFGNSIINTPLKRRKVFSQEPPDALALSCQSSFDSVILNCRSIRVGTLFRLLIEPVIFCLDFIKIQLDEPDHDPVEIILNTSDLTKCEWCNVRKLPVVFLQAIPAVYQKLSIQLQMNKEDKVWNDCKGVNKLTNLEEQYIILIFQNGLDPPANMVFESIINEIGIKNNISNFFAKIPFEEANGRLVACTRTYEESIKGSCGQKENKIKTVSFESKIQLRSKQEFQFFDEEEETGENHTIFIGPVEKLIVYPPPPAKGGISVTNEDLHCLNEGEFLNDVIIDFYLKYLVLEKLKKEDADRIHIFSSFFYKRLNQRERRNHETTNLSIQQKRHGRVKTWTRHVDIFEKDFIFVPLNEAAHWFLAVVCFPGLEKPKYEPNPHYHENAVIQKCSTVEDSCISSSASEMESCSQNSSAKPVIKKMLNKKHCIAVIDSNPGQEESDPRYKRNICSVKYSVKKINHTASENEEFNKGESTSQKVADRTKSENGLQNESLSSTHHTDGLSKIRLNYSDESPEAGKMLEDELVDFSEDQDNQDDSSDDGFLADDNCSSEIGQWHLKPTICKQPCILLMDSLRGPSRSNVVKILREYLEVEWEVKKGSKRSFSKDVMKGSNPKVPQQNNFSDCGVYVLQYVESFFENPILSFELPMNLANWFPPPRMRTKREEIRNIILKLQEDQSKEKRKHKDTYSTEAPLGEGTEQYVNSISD

[20] = target: Proto-oncogene tyrosine-protein kinase receptor Ret (Homo sapiens, UniProt P07949); type: functional;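 further: measured within a kinome-wide profiling panel, RET as the panel member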
[21] = target: Serine/threonine-protein kinase D3 (Homo sapiens, UniProt O94806); type: functional;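 further: determined within a kinase panel screen, with PRKCN as the panel member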
[22] = target: Mitogen-activated protein kinase 9 (Homo sapiens, UniProt P45984); type: functional;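 further: value from a kinome panel profiling assay, MAPK9 panel entry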
[23] = target: Platelet-derived growth factor receptor alpha (Homo sapiens, UniProt P16234); assay: Navigating the Kinome. Panel member name: PDGFRA; type: functional
[24] = target: Calcium/calmodulin-dependent protein kinase type II subunit alpha (Homo sapiens, UniProt Q9UQM7); assay: Navigating the Kinome. Panel member name: CAMK2A; type: functional
[25] = target: ALK tyrosine kinase receptor (Homo sapiens, UniProt Q9UM73); type: functional;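 further: ALK tested as one member of a kinase panel screen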
[26] = target: Wee1-like protein kinase (Homo sapiens, UniProt P30291); assay: Navigating the Kinome. Panel member name: WEE1; type: functional

Sequence of Proto-oncogene tyrosine-protein kinase receptor Ret (P07949 whole entry): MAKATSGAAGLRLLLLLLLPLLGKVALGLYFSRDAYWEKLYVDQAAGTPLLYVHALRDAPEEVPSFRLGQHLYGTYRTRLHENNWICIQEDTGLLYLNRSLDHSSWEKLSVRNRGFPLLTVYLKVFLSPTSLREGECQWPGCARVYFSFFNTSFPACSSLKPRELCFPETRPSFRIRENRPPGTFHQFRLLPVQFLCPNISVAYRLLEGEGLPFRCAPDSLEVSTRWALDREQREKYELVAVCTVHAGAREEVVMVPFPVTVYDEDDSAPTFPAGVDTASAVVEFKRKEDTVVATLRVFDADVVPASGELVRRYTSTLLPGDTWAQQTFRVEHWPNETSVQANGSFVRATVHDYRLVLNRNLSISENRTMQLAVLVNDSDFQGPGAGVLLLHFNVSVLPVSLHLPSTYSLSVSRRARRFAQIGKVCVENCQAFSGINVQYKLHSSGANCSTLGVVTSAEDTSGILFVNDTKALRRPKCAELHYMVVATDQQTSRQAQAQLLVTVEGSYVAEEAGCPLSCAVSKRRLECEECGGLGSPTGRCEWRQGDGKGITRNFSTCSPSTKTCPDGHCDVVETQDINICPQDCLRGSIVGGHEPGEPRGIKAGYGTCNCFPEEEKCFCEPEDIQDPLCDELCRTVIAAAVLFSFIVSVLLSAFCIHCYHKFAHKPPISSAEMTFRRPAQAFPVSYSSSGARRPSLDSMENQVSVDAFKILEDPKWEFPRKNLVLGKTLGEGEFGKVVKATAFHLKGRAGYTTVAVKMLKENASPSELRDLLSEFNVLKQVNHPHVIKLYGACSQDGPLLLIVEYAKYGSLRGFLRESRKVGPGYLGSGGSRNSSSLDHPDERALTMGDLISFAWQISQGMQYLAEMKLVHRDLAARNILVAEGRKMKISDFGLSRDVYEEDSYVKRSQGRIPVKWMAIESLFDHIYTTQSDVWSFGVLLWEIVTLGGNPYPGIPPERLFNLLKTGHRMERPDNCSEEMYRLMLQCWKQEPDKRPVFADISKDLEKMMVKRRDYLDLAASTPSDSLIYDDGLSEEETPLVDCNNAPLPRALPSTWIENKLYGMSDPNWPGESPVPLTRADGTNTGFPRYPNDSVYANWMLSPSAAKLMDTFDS
Sequence of Calcium/calmodulin-dependent protein kinase type II subunit alpha (Q9UQM7 whole entry): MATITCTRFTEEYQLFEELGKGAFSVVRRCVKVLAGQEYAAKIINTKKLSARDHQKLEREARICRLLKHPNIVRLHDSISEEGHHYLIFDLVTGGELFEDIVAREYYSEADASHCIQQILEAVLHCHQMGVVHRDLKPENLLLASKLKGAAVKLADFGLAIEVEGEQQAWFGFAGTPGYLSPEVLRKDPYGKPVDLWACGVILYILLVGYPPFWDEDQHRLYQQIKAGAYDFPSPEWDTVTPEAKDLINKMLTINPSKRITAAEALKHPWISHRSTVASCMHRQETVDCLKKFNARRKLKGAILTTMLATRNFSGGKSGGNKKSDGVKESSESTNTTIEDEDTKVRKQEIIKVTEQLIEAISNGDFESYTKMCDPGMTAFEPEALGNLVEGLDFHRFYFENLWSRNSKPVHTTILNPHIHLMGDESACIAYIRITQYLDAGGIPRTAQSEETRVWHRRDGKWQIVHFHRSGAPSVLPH
Sequence of Protein kinase C zeta type (Q05513 whole entry): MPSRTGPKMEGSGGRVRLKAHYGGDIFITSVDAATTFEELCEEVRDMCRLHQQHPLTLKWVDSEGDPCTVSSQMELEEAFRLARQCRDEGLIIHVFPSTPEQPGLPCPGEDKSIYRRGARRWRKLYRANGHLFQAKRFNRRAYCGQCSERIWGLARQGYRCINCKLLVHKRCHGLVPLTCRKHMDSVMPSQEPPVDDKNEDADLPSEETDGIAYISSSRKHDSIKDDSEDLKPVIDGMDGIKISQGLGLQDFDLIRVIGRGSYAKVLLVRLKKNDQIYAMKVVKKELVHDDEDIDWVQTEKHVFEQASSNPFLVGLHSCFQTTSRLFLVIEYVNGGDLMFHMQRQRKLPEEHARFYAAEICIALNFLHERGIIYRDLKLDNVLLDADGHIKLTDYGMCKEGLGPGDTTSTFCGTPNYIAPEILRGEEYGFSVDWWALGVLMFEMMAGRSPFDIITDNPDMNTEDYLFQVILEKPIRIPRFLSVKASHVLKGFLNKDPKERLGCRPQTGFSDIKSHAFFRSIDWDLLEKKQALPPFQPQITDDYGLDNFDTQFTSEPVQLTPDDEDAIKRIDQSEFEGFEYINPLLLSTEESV
Sequence of ALK tyrosine kinase receptor (Q9UM73 whole entry): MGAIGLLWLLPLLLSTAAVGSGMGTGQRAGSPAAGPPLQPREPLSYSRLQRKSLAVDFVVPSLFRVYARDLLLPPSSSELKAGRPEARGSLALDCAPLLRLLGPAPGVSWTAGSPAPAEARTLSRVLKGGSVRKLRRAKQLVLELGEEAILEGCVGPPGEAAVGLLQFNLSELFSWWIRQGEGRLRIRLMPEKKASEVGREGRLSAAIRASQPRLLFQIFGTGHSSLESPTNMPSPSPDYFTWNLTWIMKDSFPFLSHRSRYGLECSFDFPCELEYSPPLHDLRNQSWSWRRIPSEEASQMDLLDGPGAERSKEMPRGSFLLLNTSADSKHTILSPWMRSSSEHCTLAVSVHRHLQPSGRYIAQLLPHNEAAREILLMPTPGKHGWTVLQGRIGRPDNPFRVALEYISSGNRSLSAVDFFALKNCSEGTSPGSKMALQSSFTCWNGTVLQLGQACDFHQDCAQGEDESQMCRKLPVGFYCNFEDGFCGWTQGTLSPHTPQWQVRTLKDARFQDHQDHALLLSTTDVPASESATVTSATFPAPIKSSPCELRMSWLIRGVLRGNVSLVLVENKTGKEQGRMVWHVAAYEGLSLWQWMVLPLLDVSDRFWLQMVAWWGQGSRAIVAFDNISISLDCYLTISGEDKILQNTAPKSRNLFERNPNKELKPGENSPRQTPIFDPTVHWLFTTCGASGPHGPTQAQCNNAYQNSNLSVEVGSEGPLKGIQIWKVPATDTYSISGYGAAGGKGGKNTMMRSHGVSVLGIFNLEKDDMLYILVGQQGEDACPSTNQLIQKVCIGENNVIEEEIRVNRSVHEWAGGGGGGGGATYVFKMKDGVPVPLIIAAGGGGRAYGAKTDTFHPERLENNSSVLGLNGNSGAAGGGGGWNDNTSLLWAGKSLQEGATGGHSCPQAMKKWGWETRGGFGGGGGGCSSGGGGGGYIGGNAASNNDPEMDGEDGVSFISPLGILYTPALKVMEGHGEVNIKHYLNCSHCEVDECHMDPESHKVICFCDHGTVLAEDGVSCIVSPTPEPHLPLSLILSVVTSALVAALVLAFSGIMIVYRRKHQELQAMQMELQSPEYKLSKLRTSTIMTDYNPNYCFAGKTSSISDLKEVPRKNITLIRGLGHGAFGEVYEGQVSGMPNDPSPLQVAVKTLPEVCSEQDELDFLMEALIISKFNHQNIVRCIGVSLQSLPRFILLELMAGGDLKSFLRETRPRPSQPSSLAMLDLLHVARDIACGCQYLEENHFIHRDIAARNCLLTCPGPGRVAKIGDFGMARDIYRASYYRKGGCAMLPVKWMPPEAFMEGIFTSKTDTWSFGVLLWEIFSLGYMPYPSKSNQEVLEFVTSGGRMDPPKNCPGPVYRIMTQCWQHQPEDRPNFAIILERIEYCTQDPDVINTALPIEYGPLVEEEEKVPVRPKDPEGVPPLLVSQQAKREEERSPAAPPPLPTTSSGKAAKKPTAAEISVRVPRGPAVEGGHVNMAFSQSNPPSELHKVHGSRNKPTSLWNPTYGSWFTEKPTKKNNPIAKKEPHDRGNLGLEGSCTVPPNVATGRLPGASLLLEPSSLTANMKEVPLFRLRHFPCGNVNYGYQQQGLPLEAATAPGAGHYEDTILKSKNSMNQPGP
Sequence of Serine/threonine-protein kinase pim-1 (P11309 whole entry): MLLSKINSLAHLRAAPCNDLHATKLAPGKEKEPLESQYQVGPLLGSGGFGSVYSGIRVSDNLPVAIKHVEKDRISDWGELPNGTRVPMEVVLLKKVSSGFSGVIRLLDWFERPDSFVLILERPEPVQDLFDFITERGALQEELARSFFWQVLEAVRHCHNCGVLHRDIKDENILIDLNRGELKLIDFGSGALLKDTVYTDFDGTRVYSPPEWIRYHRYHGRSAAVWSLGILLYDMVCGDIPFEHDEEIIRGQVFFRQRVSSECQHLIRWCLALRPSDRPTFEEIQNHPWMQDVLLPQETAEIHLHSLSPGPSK
Sequence of Nonstructural protein 1 (Q194T2 whole entry): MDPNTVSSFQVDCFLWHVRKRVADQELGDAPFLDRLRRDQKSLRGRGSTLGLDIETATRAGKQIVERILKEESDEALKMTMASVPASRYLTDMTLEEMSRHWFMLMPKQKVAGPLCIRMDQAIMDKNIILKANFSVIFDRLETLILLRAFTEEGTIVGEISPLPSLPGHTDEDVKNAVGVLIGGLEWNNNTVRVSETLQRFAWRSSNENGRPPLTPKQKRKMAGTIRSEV
Sequence of G protein-coupled receptor kinase 5 (P34947 whole entry): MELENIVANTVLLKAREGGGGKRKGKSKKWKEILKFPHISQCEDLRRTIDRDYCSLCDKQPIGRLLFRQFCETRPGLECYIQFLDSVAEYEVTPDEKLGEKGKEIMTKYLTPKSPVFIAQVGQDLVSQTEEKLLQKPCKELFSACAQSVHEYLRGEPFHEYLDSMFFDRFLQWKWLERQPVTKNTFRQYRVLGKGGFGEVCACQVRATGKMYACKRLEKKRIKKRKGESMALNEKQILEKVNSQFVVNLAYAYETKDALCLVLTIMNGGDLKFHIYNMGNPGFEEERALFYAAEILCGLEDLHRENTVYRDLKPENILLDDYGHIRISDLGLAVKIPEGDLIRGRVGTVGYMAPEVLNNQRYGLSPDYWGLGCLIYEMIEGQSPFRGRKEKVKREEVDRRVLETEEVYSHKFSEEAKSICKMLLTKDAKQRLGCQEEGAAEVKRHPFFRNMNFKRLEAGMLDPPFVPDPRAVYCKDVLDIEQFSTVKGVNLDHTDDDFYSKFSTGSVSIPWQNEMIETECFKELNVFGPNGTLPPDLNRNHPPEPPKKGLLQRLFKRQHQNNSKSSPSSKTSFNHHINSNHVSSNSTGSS

In the case of O=c1ncn2nc(Sc3ccc(F)cc3F)ccc2c1-c1c(Cl)cccc1Cl [NEFLAMAPIMOD], the Ki [1] is reported as > 7.94 µM (inactive), the Ki [2] is reported as > 7.94 µM (inactive) and the Ki [3] is reported as > 10 µM (inactive). The Ki [4] was > 3.98 µM (inactive).

In the case of CNCCONC(=O)c1ccc(F)c(F)c1Nc1ccc(I)cc1F, the Ki [5] is reported as 2 µM (active) and the Ki [6] is reported as 7.94 µM (active).

For CCOc1ccc(NC(=O)CSc2nc(O)c(C)c(=O)n2-c2ccc(F)cc2)cc1, the IC50 [7] was > 25 µM (active).

In the case of COc1ccccc1NC(=S)NN=C(C)c1ccccn1, the EC50 [8] is reported as 3.03 µM (active), the IC50 [9] is reported as 25.8 µM (active) and the EC50 [10] is reported as > 80 µM (inactive). The AC50 [11] was 0.638 µM (active).

In the case of COc1ccc(Oc2c(Cl)cnn(Cc3cccc4ccccc34)c2=O)cc1OC, the IC50 [12] is reported as 1.44 µM (active).

In the case of COc1cc(N)c2ncccc2c1, the IC50 [13] is reported as 43.1 µM (inactive), the IC50 [14] is reported as 76.2 µM (inactive) and the IC50 [15] is reported as > 79 µM (inactive).

With Cc1[nH]c2ccccc2c1/C=N/NC(=O)c1cc2ccccc2cc1O the IC50 [16] was > 99 µM (inactive), the IC50 [17] was 79.4 µM (active) and the IC50 [18] was 95.7 µM (active). The IC50 [19] was 83.4 µM (active).

In the case of CCN(CCN(C)C)C(=O)c1cccc(-n2nc(C(C)(C)C)cc2NC(=O)Nc2cccc3ccccc23)c1, the Ki [20] is reported as 1.58 µM (active), the Ki [21] is reported as 3.16 µM (active) and the Ki [22] is reported as 3.16 µM (active). The Ki [23] was 1.26 µM (active) and the Ki [24] was > 7.94 µM (inactive).

In the case of CCNc1nc(C)c(-c2ccnc(Nc3ccc(N4CCNCC4)cc3)n2)s1, the Ki [25] is reported as 0.2 µM (active) and the Ki [26] is reported as 0.0794 µM (active).
